Measurements taken from patent US20220135591A1, “HETEROCYCLIC COMPOUNDS AS INHIBITORS OF MONOACYLGLYCEROL LIPASE (MAGL)” (Hoffmann-La Roche Inc., priority 2019, published 2022).

Molecular target: T1, MAGL (recombinant wild-type) (Homo sapiens, UniProt Q99685)
T1 sequence (Q99685 1-303): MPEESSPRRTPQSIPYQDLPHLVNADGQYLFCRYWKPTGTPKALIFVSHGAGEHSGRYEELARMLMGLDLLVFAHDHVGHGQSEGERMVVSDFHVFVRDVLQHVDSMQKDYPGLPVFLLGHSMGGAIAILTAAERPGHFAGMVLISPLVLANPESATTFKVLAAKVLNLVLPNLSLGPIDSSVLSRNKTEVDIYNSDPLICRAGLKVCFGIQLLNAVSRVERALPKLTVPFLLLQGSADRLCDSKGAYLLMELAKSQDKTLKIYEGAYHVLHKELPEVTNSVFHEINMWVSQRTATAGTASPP
Assay: 4-NPA assay: MAGL inhibitory activity by hydrolysis of 4-nitrophenylacetate, absorbance at 405 nm
Format: biochemical
Conditions: 4-NPA assay (values without footnote [b])
Procedure: Compounds were profiled for MAGL inhibitory activity by measuring the enzymatic activity of MAGL by following the hydrolysis of 4-nitrophenylacetate resulting in 4-nitrophenol, which absorbs at 405-412 nm (G. G. Muccioli, G. Labar, D. M. Lambert, Chem. Bio. Chem. 2008, 9, 2704-2710). This assay is hereinafter abbreviated “4-NPA assay”.
The assay was carried out in 384 well assay plates (black with clear bottom, non-binding surface treated, Corning Ref. 3655) in a total volume of 40 μL. Compound dilutions were made in 100% DMSO (VWR Chemicals 23500.297) in a polypropylene plate in 3-fold dilution steps to give a final concentration range in the assay from 25 μM to 1.7 nM. 1 μL compound dilutions (100% DMSO) were added to 19 μL MAGL (recombinant wild-type) in assay buffer (50 mM TRIS (GIBCO, 15567-027), 1 mM EDTA (Fluka, 03690-100 mL)). The plate was shaked for 1 min at 2000 rpm (Variomag Teleshake) and then incubated for 15 min at RT. To start the reaction, 20 μL 4-Nitrophenlyacetate (Sigma N-8130) in assay buffer with 6% EtOH was added. The final concentrations in the assay were 1 nM MAGL and 300 μM 4-Nitrophenylacetate. After shaking (1 min, 2000 rpm) and 5 min incubation at RT, the absorbance at 405 nm was measured for a first time (Molecular Devices, SpectraMax Paradigm). A second measurement was then done after incubation for 80 min at RT. From the two measurements, the slope was calculated by subtracting the first from the second measurement.

IC50 [nM]	Structure (SMILES)
13	CC1(Cn2cnc(-c3ccc(C(=O)N4CCN(c5nc6nc(Cl)ccc6o5)CC4)cc3)n2)CC1 [Example 49, [4-(5-chlorooxazolo[4,5-b]pyridin-2-yl)piperazin-1-yl]-[4-[1-[(1-methylcyclopropyl)methyl]-1,2,4-triazol-3-yl]phenyl]methanone]
4230	CC1(Cn2ncnc2-c2ccc(C(=O)N3CCN(c4nc5nc(Cl)ccc5o4)CC3)cc2)CC1 [Example 50, [4-(5-chlorooxazolo[4,5-b]pyridin-2-yl)piperazin-1-yl]-[4-[2-[(1-methylcyclopropyl)methyl]-1,2,4-triazol-3-yl]phenyl]methanone]
5	Cc1cc(C(=O)N2CCN(c3nc4nc(Cl)ccc4o3)CC2)ccc1-c1noc(C(C)(C)C)n1 [Example 57, [4-(5-tert-butyl-1,2,4-oxadiazol-3-yl)-3-methyl-phenyl]-[4-(5-chlorooxazolo[4,5-b]pyridin-2-yl)piperazin-1-yl]methanone]
15	CC(C)(C)c1nc(-c2ccc(C(=O)N3CCN(c4nc5nc(Cl)ccc5o4)CC3)cc2F)no1 [Example 59, [4-(5-tert-butyl-1,2,4-oxadiazol-3-yl)-3-fluoro-phenyl]-[4-(5-chlorooxazolo[4,5-b]pyridin-2-yl)piperazin-1-yl]methanone]
46	CC1(COc2ccc(C(=O)N3CCN(c4nc5nc(Cl)ccc5o4)CC3)cc2Cl)CC1 [Example 60, [3-chloro-4-[(1-methylcyclopropyl)methoxy]phenyl]-[4-(5-chlorooxazolo[4,5-b]pyridin-2-yl)piperazin-1-yl]methanone]
20	CC(C)(C)c1cn(-c2ccc(C(=O)N3CCN(c4nc5nc(Cl)ccc5o4)CC3)cc2)cn1 [Example 63, [4-(4-tert-butylimidazol-1-yl)phenyl]-[4-(5-chlorooxazolo[4,5-b]pyridin-2-yl)piperazin-1-yl]methanone]
5	Cc1cc(C(=O)N2CCN(c3nc4nc(Cl)ccc4o3)CC2)ccc1OCC(C)(C)C [Example 64, [4-(5-chlorooxazolo[4,5-b]pyridin-2-yl)piperazin-1-yl]-[4-(2,2-dimethylpropoxy)-3-methyl-phenyl]methanone]
11	Cc1ccc2oc(N3CCN(C(=O)c4ccc(OCC(C)(C)C)c(C)c4)CC3)nc2n1 [Example 65, [4-(2,2-dimethylpropoxy)-3-methyl-phenyl]-[4-(5-methyloxazolo[4,5-b]pyridin-2-yl)piperazin-1-yl]methanone]
87	Cc1ccc2oc(N3CCN(C(=O)c4ccc(OCC5(C)CC5)c(Cl)c4)CC3)nc2n1 [Example 66, [3-chloro-4-[(1-methylcyclopropyl)methoxy]phenyl]-[4-(5-methyloxazolo[4,5-b]pyridin-2-yl)piperazin-1-yl]methanone]

Continued, compound first:

Structure (SMILES)	IC50 [nM]
CC(C)(C)Cn1cc(-c2ccc(C(=O)N3CCN(c4nc5nc(Cl)ccc5o4)CC3)cc2)nn1 [Example 43, [4-(5-chlorooxazolo[4,5-b]pyridin-2-yl)piperazin-1-yl]-[4-[1-(2,2-dimethylpropyl)triazol-4-yl]phenyl]methanone]	6
CC(C)(C)Cn1ncc(-c2ccc(C(=O)N3CCN(c4nc5nc(Cl)ccc5o4)CC3)cc2)n1 [Example 44, [4-(5-chlorooxazolo[4,5-b]pyridin-2-yl)piperazin-1-yl]-[4-[2-(2,2-dimethylpropyl)triazol-4-yl]phenyl]methanone]	3
CC1CN(c2nc3nc(Cl)ccc3o2)CCN1C(=O)c1ccc(-c2noc(C(C)(C)C)n2)cc1 (stereo not drawn) [Example 45, [4-(5-tert-butyl-1,2,4-oxadiazol-3-yl)phenyl]-[4-(5-chlorooxazolo[4,5-b]pyridin-2-yl)-2-methyl-piperazin-1-yl]methanone]	72
CC1CN(C(=O)c2ccc(-c3noc(C(C)(C)C)n3)cc2)CCN1c1nc2nc(Cl)ccc2o1 (stereo not drawn) [Example 46, [4-(5-tert-butyl-1,2,4-oxadiazol-3-yl)phenyl]-[4-(5-chlorooxazolo[4,5-b]pyridin-2-yl)-3-methyl-piperazin-1-yl]methanone]	28
Cc1ccc2oc(N3CCN(C(=O)c4ccc(-c5cnn(C(C)(C)C)c5)cc4)CC3)nc2n1 [Example 47, [4-(1-tert-butylpyrazol-4-yl)phenyl]-[4-(5-methyloxazolo[4,5-b]pyridin-2-yl)piperazin-1-yl]methanone]	37
CC(C)(C)n1cc(-c2ccc(C(=O)N3CCN(c4nc5nc(Cl)ccc5o4)CC3)cc2)cn1 [Example 48, [4-(1-tert-butylpyrazol-4-yl)phenyl]-[4-(5-chlorooxazolo[4,5-b]pyridin-2-yl)piperazin-1-yl]methanone]	15
Cc1ccc2oc(N3CCN(C(=O)c4ccc(-c5noc(C6(C)CC6)n5)cc4)CC3)nc2n1 [Example 51, [4-[5-(1-methylcyclopropyl)-1,2,4-oxadiazol-3-yl]phenyl]-[4-(5-methyloxazolo[4,5-b]pyridin-2-yl)piperazin-1-yl]methanone]	67
CC(C)(C)c1cnn(-c2ccc(C(=O)N3CCN(c4nc5nc(Cl)ccc5o4)CC3)cc2)c1 [Example 52, [4-(4-tert-butylpyrazol-1-yl)phenyl]-[4-(5-chlorooxazolo[4,5-b]pyridin-2-yl)piperazin-1-yl]methanone]	5
Cc1ccc2oc(N3CCN(C(=O)c4ccc(-n5cc(C(C)(C)C)cn5)cc4)CC3)nc2n1 [Example 53, [4-(4-tert-butylpyrazol-1-yl)phenyl]-[4-(5-methyloxazolo[4,5-b]pyridin-2-yl)piperazin-1-yl]methanone]	12
Cc1ccc2oc(N3CCN(C(=O)c4ccc(-c5cnn(CC(C)(C)C)c5)cc4)CC3)nc2n1 [Example 54, [4-[1-(2,2-dimethylpropyl)pyrazol-4-yl]phenyl]-[4-(5-methyloxazolo[4,5-b]pyridin-2-yl)piperazin-1-yl]methanone]	6
Cc1ccc2oc(N3CCN(C(=O)c4ccc(-n5cnc(C(C)(C)C)c5)cc4)CC3)nc2n1 [Example 55, [4-(4-tert-butylimidazol-1-yl)phenyl]-[4-(5-methyloxazolo[4,5-b]pyridin-2-yl)piperazin-1-yl]methanone]	63
Cc1ccc2oc(N3CCN(C(=O)c4ccc(-c5noc(C(C)(C)C)n5)c(C)c4)CC3)nc2n1 [Example 56, [4-(5-tert-butyl-1,2,4-oxadiazol-3-yl)-3-methyl-phenyl]-[4-(5-methyloxazolo[4,5-b]pyridin-2-yl)piperazin-1-yl]methanone]	11
Cc1ccc2oc(N3CCN(C(=O)c4ccc(-c5noc(C(C)(C)C)n5)c(F)c4)CC3)nc2n1 [Example 58, [4-(5-tert-butyl-1,2,4-oxadiazol-3-yl)-3-fluoro-phenyl]-[4-(5-methyloxazolo[4,5-b]pyridin-2-yl)piperazin-1-yl]methanone]	43
CC(C)(C)c1nc(-c2ccc(C(=O)N3CCN(c4nc5nc(Cl)ccc5o4)CC3)cn2)no1 [Example 61, [6-(5-tert-butyl-1,2,4-oxadiazol-3-yl)-3-pyridyl]-[4-(5-chlorooxazolo[4,5-b]pyridin-2-yl)piperazin-1-yl]methanone]	272
Cc1ccc2oc(N3CCN(C(=O)c4ccc(-c5noc(C(C)(C)C)n5)nc4)CC3)nc2n1 [Example 62, [6-(5-tert-butyl-1,2,4-oxadiazol-3-yl)-3-pyridyl]-[4-(5-methyloxazolo[4,5-b]pyridin-2-yl)piperazin-1-yl]methanone]	871
